Test results from patent US11584725B2, “Pyrazinoic acid conjugates and hybrid conjugates” (Augusta University Research Institute, Inc., priority 2018, dated 2023).
Values after ≈ are worked out from the molar mass of the structure shown. Values joined by “and” are separate entries in the source; they are usually repeats but may differ in a detail not shown here. Identical values can stand only once. Like-named read-outs stand apart in the source and are kept apart here.

Experiments:
Type in all cases: cell-based
Mycobacterium marinum = assay: Anti-mycobacterial MIC; details: read-out: Minimum inhibitory concentration (MIC), observed
Enterococcus faecalis = assay: Antibacterial MIC, aerobic bacteria, standard technique; details: read-out: Minimum inhibitory concentration (MIC)
From the text: (§1) Antibacterial properties were investigated for the synthesized compounds against a variety of Gram-positive (Staphylococcus aureus, Enterococcus faecalis) and Gram-negative (Klebsiella pneumonia, Proteus vulgaris, Pseudomonas aeruginosa) bacteria utilizing the standard technique.

Mycobacterium fortuitum = assay: Anti-mycobacterial MIC; details: for MIC: Mycolicibacterium fortuitum
Mycobacterium bovis = assay: microbe, parasite or virus in culture; details: for MIC: Mycobacterium tuberculosis variant bovis, read-out: Minimum inhibitory concentration (MIC); for MIC lower than that of the standard reference (INH): Mycobacterium bovis, MIC vs INH
Proteus vulgaris = assay: Antibacterial MIC, aerobic bacteria, standard technique; details: read-out: Minimum inhibitory concentration (MIC)
From the text: as §1

Klebsiella pneumonia = assay: as above; details: Klebsiella pneumoniae, read-out: Minimum inhibitory concentration (MIC)
From the text: as §1

Staphylococcus aureus = assay: as above; details: read-out: Minimum inhibitory concentration (MIC)
From the text: as §1

[1] = read-out: Minimum inhibitory concentration (MIC), observed
[2] = read-out: Minimum inhibitory concentration (MIC)

With NNC(=O)c1ccncc1 [INH, isoniazide, reference compound] the MIC (Mycobacterium marinum) was 72.9 mM (≈ 10 mg/mL).
With CC(C)[C@H](NC(=O)c1cnccn1)C(=O)NNC(=O)c1ccncc1 [drawing 36] the MIC (Enterococcus faecalis) was 0.35 µM.
With CC(C)C[C@H](NC(=O)c1cnccn1)C(=O)O [PZA-Leu-OH] the MIC (Mycobacterium fortuitum; [1]) was 84.3 mM and the MIC (Mycobacterium marinum) was 84.3 mM (≈ 20 mg/mL).
With O=C(N[C@@H](Cc1c[nH]c2ccccc12)C(=O)O)c1cnccn1 the MIC (Mycobacterium fortuitum; [2]) was > 20 mg/mL.
With CSCC[C@H](NC(=O)c1cnccn1)C(=O)NNC(=O)c1ccncc1 [PZA-Met-INH] the MIC (Mycobacterium fortuitum; [1]) was 53.4 mM and the MIC (Mycobacterium marinum) was 26.7 mM (≈ 10 mg/mL).
O=C(NNC(=O)c1ccncc1)c1ccncc1 [drawing 61] was tested, and the MIC (Mycobacterium fortuitum; [2]) was 20 mg/mL.
CCC(C)C(NC(=O)c1cnccn1)C(=O)NNC(=O)c1ccncc1 (stereo not shown) [PZA-Ile-INH] was tested, and the MIC (Mycobacterium fortuitum; [1]) was 56.1 mM and the MIC (Mycobacterium marinum) was 56.1 mM (≈ 20 mg/mL).
In the case of CC(C)[C@H](NC(=O)c1cnccn1)C(=O)NNC(=O)c1ccncc1 [drawing 54], the MIC (Mycobacterium fortuitum; [2]) was 20 mg/mL.
NC(=O)c1cnccn1 [drawing 44] showed an MIC (Mycobacterium fortuitum; [2]) of 10 mg/mL.
In the case of CCC(C)C(NC(=O)c1cnccn1)C(=O)NNC(=O)c1ccncc1 (stereo not shown) [drawing 55], the MIC (Mycobacterium fortuitum; [2]) was 20 mg/mL and the MIC (Mycobacterium bovis) was > 20 mg/mL.
O=C(NNC(=O)C(Cc1ccccc1)NC(=O)c1cnccn1)c1ccncc1 (stereo not shown) gave an MIC (Mycobacterium fortuitum; [2]) of 10 mg/mL.
With O=C(NC(Cc1ccccc1)C(=O)O)c1cnccn1 (stereo not shown) the MIC (Mycobacterium fortuitum; [2]) was > 20 mg/mL.
With CCC(C)C(NC(=O)c1cnccn1)C(=O)NNC(=O)c1ccncc1 (stereo not shown) [drawing 37] the MIC (Enterococcus faecalis) was 0.03 µg/mL and 0.08 µM, the MIC (Proteus vulgaris) was 0.06 µg/mL (≈ 0.168 µM) and the MIC (Klebsiella pneumonia) was 8 µg/mL (≈ 22.4 µM).
In the case of CCC(C)C(NC(=O)c1cnccn1)C(=O)O (stereo not shown) [drawing 48], the MIC (Mycobacterium fortuitum; [2]) was > 20 mg/mL and the MIC (Mycobacterium bovis) was > 20 mg/mL.
For O=C(N[C@@H](Cc1ccccc1)C(=O)O)c1cnccn1, the MIC (Mycobacterium fortuitum; [2]) was > 20 mg/mL.
With CC(C)C[C@H](NC(=O)c1cnccn1)C(=O)NNC(=O)c1ccncc1 [drawing 53] the MIC (Mycobacterium fortuitum; [2]) was 20 mg/mL.
With CSCC[C@H](NC(=O)c1cnccn1)C(=O)NNC(=O)c1ccncc1 [drawing 56] the MIC (Mycobacterium fortuitum; [2]) was 20 mg/mL.
O=C(NNC(=O)c1cnccn1)c1ccncc1 [PZA-INH] was tested, and the MIC (Mycobacterium fortuitum; [1]) was 41.1 mM, the “MIC lower than that of the standard reference (INH)” value (Mycobacterium bovis) was “about 1.8 folds” and the MIC (Mycobacterium marinum) was 41.1 mM (≈ 10 mg/mL).
NNC(=O)c1ccncc1 [drawing 45] showed an MIC (Mycobacterium fortuitum; [2]) of 20 mg/mL.
In the case of O=C(NNC(=O)C(Cc1ccccc1)NC(=O)c1cnccn1)c1ccncc1 (racemic) [PZA-DL-Phe-INH], the “Potency relative to the standard reference (INH)” value (Mycobacterium fortuitum; MIC vs INH) was “about 5.6 folds”.
CC(C)[C@H](NC(=O)c1cnccn1)C(=O)O was tested, and the MIC (Mycobacterium fortuitum; [2]) was > 20 mg/mL.
For O=C(NNC(=O)[C@H](Cc1c[nH]c2ccccc12)NC(=O)c1cnccn1)c1ccncc1 [PZA-Trp-INH], the MIC (Mycobacterium fortuitum; [1]) was 46.6 mM and the MIC (Mycobacterium marinum) was 46.6 mM (≈ 20 mg/mL).
Work on CC(C)C[C@H](NC(=O)c1cnccn1)C(=O)O [drawing 46] yielded an MIC (Mycobacterium fortuitum; [2]) of 20 mg/mL.
With O=C(NNC(=O)c1ccncc1)c1ccncc1 [Iso-INH] the MIC (Mycobacterium fortuitum; [1]) was 82.6 mM, the “MIC lower than that of the standard reference (INH)” value (Mycobacterium bovis) was “about 1.8 folds” and the MIC (Mycobacterium marinum) was 82.6 mM (≈ 20 mg/mL).
In the case of CSCC[C@H](NC(=O)c1cnccn1)C(=O)O, the MIC (Mycobacterium fortuitum; [2]) was > 20 mg/mL.
Work on CC(C)[C@H](NC(=O)c1cnccn1)C(=O)NNC(=O)c1ccncc1 [PZA-Val-INH] yielded an MIC (Mycobacterium fortuitum; [1]) of 58.4 mM and an MIC (Mycobacterium marinum) of 58.4 mM (≈ 20 mg/mL).
For NC(=O)c1cnccn1 [PZA, Pyrazinamide, reference compound], the MIC (Mycobacterium fortuitum; [1]) was 81.2 mM and the MIC (Mycobacterium marinum) was 81.2 mM (≈ 10 mg/mL).
For O=C(NNC(=O)[C@H](Cc1c[nH]c2ccccc12)NC(=O)c1cnccn1)c1ccncc1 [drawing 41], the MIC (Staphylococcus aureus) was 3.73 mM (≈ 1.6 mg/mL).
For O=C(NNC(=O)[C@H](Cc1ccccc1)NC(=O)c1cnccn1)c1ccncc1 [PZA-Phe-INH], the MIC (Mycobacterium fortuitum; [1]) was 51.2 mM and the MIC (Mycobacterium marinum) was 51.2 mM (≈ 20 mg/mL).
For O=C(NNC(=O)[C@H](Cc1c[nH]c2ccccc12)NC(=O)c1cnccn1)c1ccncc1 [drawing 59], the MIC (Mycobacterium fortuitum; [2]) was 20 mg/mL.
O=C(NNC(=O)c1cnccn1)c1ccncc1 [drawing 60] gave an MIC (Mycobacterium fortuitum; [2]) of 10 mg/mL.
Work on CC(C)C[C@H](NC(=O)c1cnccn1)C(=O)NNC(=O)c1ccncc1 [PZA-Leu-INH] yielded an MIC (Mycobacterium fortuitum; [1]) of 56.1 mM and an MIC (Mycobacterium marinum) of 56.1 mM (≈ 20 mg/mL).
With CCC(C)C(NC(=O)c1cnccn1)C(=O)O (stereo not shown) [drawing 30] the MIC (Enterococcus faecalis) was 0.03 µg/mL, the MIC (Proteus vulgaris) was 0.06 µg/mL (≈ 0.253 µM) and the MIC (Klebsiella pneumonia) was 8 µg/mL (≈ 33.7 µM).
O=C(NNC(=O)[C@H](Cc1ccccc1)NC(=O)c1cnccn1)c1ccncc1 [drawing 57] was tested, and the MIC (Mycobacterium fortuitum; [2]) was 20 mg/mL.
